Results from paper PMC2810227, “3-O-Methylfunicone, a Selective Inhibitor of Mammalian Y-Family DNA Polymerases from an Australian Sea Salt Fungal Strain” (Marine Drugs, 2009).
Read-outs that look alike come from different tables or passages of the source.

Molecular target: T1, human pol κ (Homo sapiens, UniProt Q9UBT6)
T1 construct: A truncated form of pol κ (residues 1–560) with 6 x His-tags attached at the C-terminus; 6xHis (C); made in house; host or cells: E. coli
T1 sequence (Q9UBT6 1-560): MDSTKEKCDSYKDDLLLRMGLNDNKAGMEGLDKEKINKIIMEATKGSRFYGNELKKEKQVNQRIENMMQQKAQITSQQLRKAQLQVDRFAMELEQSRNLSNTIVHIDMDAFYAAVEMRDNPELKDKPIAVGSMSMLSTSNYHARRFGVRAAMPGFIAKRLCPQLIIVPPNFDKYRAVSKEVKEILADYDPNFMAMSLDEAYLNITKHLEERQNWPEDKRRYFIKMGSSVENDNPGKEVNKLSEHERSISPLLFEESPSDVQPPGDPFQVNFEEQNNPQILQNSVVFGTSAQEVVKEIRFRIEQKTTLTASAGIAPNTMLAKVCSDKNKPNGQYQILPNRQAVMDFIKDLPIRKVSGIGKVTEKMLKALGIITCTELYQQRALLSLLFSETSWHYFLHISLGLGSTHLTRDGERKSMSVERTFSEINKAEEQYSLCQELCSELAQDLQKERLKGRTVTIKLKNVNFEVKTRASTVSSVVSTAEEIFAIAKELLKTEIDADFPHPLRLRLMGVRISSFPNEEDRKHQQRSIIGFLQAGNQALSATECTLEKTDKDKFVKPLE
Assay: Kinetic analysis of the inhibition of human pol κ
Assay type: biochemical
Settings: for Ki: Dixon plot
From the text: Next, to elucidate the mechanism of inhibition, the extent of inhibition as a function of DNA template-primer or dNTP substrate concentrations was studied (Figure 4). In kinetic analysis, poly(dA)/oligo(dT)18 and dTTP were used as the DNA template-primer and dNTP substrate, respectively. […] When activated DNA and four dNTP substrates were used as the DNA template-primer and dNTP substrate, respectively, the inhibition of human pol κ by compound 1 was competitive with the DNA template-primer and non-competitive with the dNTP substrate (data not shown).
Figure 4. Kinetic analysis of the inhibition of human pol κ by compound 1. (A) Human pol κ activity was measured in the absence (closed square) or presence of 4 μM (closed circle), 8 μM (closed triangle) or 12 μM (closed diamond) compound 1 using the indicated concentrations of the DNA template-primer. (B) Human pol κ activity was assayed with the indicated concentrations of the substrate dTTP in the presence of 4 μM (open circle), 8 μM (open triangle) or 12 μM (open diamond) or in the absence (open square) of compound 1. […] Amount of human pol κ in the assay mixture was 0.05 units.
The reaction mixtures for pol α, pol β, plant pols and prokaryotic pols were described previously; those for pol γ, and pols δ and ɛ were as described by Umeda et al. and Ogawa et al., respectively. The reaction mixtures for pols η, ι and κ were the same as for pol α, and the reaction mixture for pol λ was the same as for pol β. For pols, poly(dA)/oligo(dT)18 (A/T = 2/1) and dTTP were used as the DNA template-primer and nucleotide (i.e., dNTP) substrate, respectively. For HIV-1 reverse transcriptase, poly(rA)/oligo(dT)18 (A/T = 2/1) and dTTP were used as the DNA template-primer and nucleotide substrate, respectively. For TdT, oligo(dT)18 (3′-OH) and dTTP were used as the DNA primer and nucleotide substrate, respectively.
The compounds were dissolved in distilled dimethyl sulfoxide (DMSO) at various concentrations and sonicated for 30 sec. Aliquots of 4 μl sonicated samples were mixed with 16 μl of each enzyme (final amount 0.05 units) in 50 mM Tris-HCl (pH7.5) containing 1 mM dithiothreitol, 50% glycerol and 0.1 mM EDTA, and kept at 0 °C for 10 min. These inhibitor-enzyme mixtures (8 μl) were added to 16 μl of each of the enzyme standard reaction mixtures (final concentration of 50 mM Tris-HCl [pH 7.5], 1 mM dithiothreitol, 1 mM MgCl2, 15% glycerol, 10 μM poly(dA)/oligo(dT)18 and 10 μM [^3H]-dTTP), and incubation was carried out at 37 °C for 60 min, except for Taq pol, which was incubated at 74 °C for 60 min. Activity without the inhibitor was considered 100%, and the remaining activity at each concentration of the inhibitor was determined relative to this value. One unit of pol activity was defined as the amount of enzyme that catalyzed the incorporation of 1 nmol dNTP (i.e., dTTP) into synthetic DNA template-primers in 60 min at 37 °C under the normal reaction conditions for each enzyme.

C/C=C/c1occ(C(=O)c2c(OC)cc(OC)cc2C(=O)OC)c(=O)c1OC [compound 1, 3-O-methylfunicone]
increase in Michaelis constant (Km), DNA template-primer (4 μM compound): 295%
increase in Michaelis constant (Km), DNA template-primer (8 μM compound): 467%
increase in Michaelis constant (Km), DNA template-primer (12 μM compound): 812%
Vmax for the dNTP substrate (12 μM compound, decreased from 41.7 without compound): 11.1 pmol/h
Ki (read-out: inhibition constant (Ki) for the DNA template-primer): 1300 nM
Ki (read-out: inhibition constant (Ki) for the dTTP substrate): 4400 nM
mode of inhibition with the DNA template-primer (activated DNA as template-primer, data not shown): competitive
mode of inhibition with the dNTP substrate (dTTP, double reciprocal plots): non-competitive
mode of inhibition with the dNTP substrate (four dNTP substrates, data not shown): non-competitive
mode of inhibition with the DNA template-primer (poly(dA)/oligo(dT)18, double reciprocal plots): competitive
apparent maximum velocity (Vmax), DNA template-primer (unchanged in the presence of 4, 8 and 12 μM compound): 52.6 pmol/h
